Results from PMC5801568, “Liquid chromatography–tandem mass spectrometry for the simultaneous quantitation of ceftriaxone, metronidazole and hydroxymetronidazole in plasma from seriously ill, severely malnourished children” (Wellcome Open Research, 2018).

Key:
[1] = Bench-top (short term) stability in matrix at room temperature; assay type: physicochemical, human; conditions: 8 h, n=5
Protocol: (§1) Stability (ST%) studies were evaluated via sample and solution concentrations, where:
(§2) ST% is the stability of the chemical compound in the sample over the period of time. c 0 is the initial concentration, determined without introducing any extra pauses in the analysis process. c t is the concentration obtained after the storage period with time t.
Bench-top stability was evaluated by keeping plasma samples at low and high quality control levels at ambient temperatures (< 28°C) for at least 8h then processed and analyzed. Selected ambient temperature covered the temperature range for study samples, as ambient temperatures remained < 28°C.

[2] = Freeze-thaw stability (3 cycles at -20°C); assay type: physicochemical, human; conditions: 3 freeze-thaw cycles at -20°C, n=5
Protocol: as §1, §2
Spiked plasma samples were subjected to three freeze-thaw cycles at -20°C and the analytes concentrations assessed after the third cycle. This was done also for plasma ultra-filtrate spiked with CEF to assess the stability of free ceftriaxone in calibrators and quality control samples.

[3] = Sub-stock solution stability at -20°C; assay type: physicochemical; conditions: solution in 20% methanol, 28 days at -20°C; nominal conc. MET 50, CEF 300, MET-OH 30 µg/mL
Protocol: Stock solutions of CEF (5 mg of the base/mL), MET and MET-OH (both 1 mg/mL) were prepared by dissolving an appropriate amount of each compound in 20% methanol. The stock solutions were further serially diluted with 20% methanol to make working standard solutions used to spike the blank plasma to produce 0.4, 12, 24, 48, 96,150,220, 300 µg/mL CEF and 1.2, 120, 240 µg/mL QCs; 0.05, 1.0, 2.0, 4.0, 8.0, 16.0, 32.0, 50 µg/mL MET and 0.15, 20, 40 µg/mL QCs; 0.02, 0.8, 1.6, 3.2, 6.4, 13, 20, 30 µg/mL MET-OH and 0.06, 12, 24 µg/mL QCs. Stock solution of CEFU (IS) was prepared by dissolving appropriate amount of the compound in acetonitrile, the stock solution was serially diluted with acetonitrile to make working standard solutions of 1.25 µg/mL and 1 µg/mL. All the stock solutions were stored at -20°C, protected from light (in amber sample vials) and used within three months.
Sub-stock solution stability was evaluated for CEF, MET and MET-OH, by comparing the response generated from the same solution at preparation and after being stored at -20°C for a period of 28 days. […] The stability was reported as coefficient of variation between the initial concentration and the concentration at day 28.

[4] = parameters: method as in Wong et al. [17]; conditions: ref Wong et al. [17]; cited from earlier work
[5] = Plasma concentrations in hospitalized children with severe acute malnutrition (LC-MS/MS); assay type: in vivo; conditions: human, other: intravenous (CEF) and oral (MET), one study participant, oral MET 7.5 mg/Kg given 15 min before; for concentration at 5 min: 5 min after ceftriaxone IV (80 mg/kg); for concentration at 30 min: 30 min after ceftriaxone IV (80 mg/kg)
Protocol: Total drug. To a 50 µL aliquot of plasma (blank, standard, quality control, or patient sample) 200 µL of internal standard (CEFU; of a 1.25 µg/mL solution in acetonitrile) was added. The 1.5 mL polypropylene tubes were vortex-mixed for 3 minutes to precipitate the plasma proteins, followed by centrifugation (4000 x g; 10 min, 4°C). The supernatant (100 µL) was transferred into another clean 1.5 mL polypropylene tube and diluted with 400 µL of 20% methanol in water. The samples were vortex-mixed for 3 minutes and submitted for analysis by LC-MS/MS.
The validated method was successfully applied to a pharmacokinetic study of CEF, MET, MET-OH and unbound ceftriaxone in hospitalized children with complicated severe acute malnutrition (SAM) following an oral administration of MET and intravenous administration of CEF over the course of 72 hours.
81 hospitalized children with SAM and requiring IV antibiotics according to WHO and national guidelines were recruited (after obtaining ethical approval from the Kenya Medical Research Institute Scientific and Ethics Review Unit, approval number: KEMRI/SERU/CGMR-C023-3161 and informed consent from the parents/guardians) and treated with an oral dose of 7.5mg/Kg MET (Flagyl ®oral suspension, 200 mg/5 mL) three times daily and IV injection of 80 mg/kg CEF (Ceftriaxone Rocephin ®, 250 mg) once daily 15 min after metronidazole dose. Blood samples (3.0 mL) were collected into Li-heparinized tubes, a pre-dose sample was taken before administering the drugs. Further sampling at 5, 30, 60 min after ceftriaxone dose and 2, 4, and 8 h after metronidazole dose. The sampling plan was such that each patient had only three blood draws after the base-line sample. The blood was centrifuged (3000 rpm; 5 min), plasma separated and stored at -80°C until analysis time.

[6] = Auto-sampler (processed sample) stability; assay type: physicochemical, human; conditions: 24 h at 18°C, n=5
Protocol: as §1, §2
Processed sample stability was assessed by letting the samples stay in the autosampler at 18°C for 24h and then they were analyzed the following day. This was done to ensure data integrity in case of equipment failure and initiation of a re-run.

[7] = Long-term stability at -20°C; assay type: physicochemical, human; conditions: 90 days at -20°C, n=5
Protocol: as §1, §2
Long term stability of the analytes was studied over a period that covered the duration of storage of the study samples from collection to the last sample analysis, this ensured that the integrity of study samples was not compromised over the period of storage. To investigate long term stability, two sets of sample aliquots were prepared at concentrations corresponding to low and high quality control levels. The first set was processed and analyzed at day 1 and the second set after 90 days of storage at -20°C. The analyte concentrations in the plasma and ultra-filtrate samples at 90 days of storage was compared with those obtained on day 1 to determine the percentage stability.

[8] = parameters: method as in Silva et al. [12]; conditions: over a period of 48h; ref Silva et al. [12]; cited from earlier work
[9] = parameters: method as in Ilomuanya et al. [15]; conditions: after the fourth freeze/thaw cycle; ref Ilomuanya et al. [15]; cited from earlier work
[10] = parameters: method as in Ilomuanya et al. [15]; conditions: at 72h; ref Ilomuanya et al. [15]; cited from earlier work
[11] = plasma ultra-filtrate, spiked conc. 1.2 µg/mL
[12] = plasma ultra-filtrate, spiked conc. 240 µg/mL
[13] = plasma, high QC spiked conc. (MET 40, CEF 240, MET-OH 24 µg/mL)
[14] = plasma, low QC spiked conc. (MET 0.15, CEF 1.2, MET-OH 0.06 µg/mL)
[15] = processed plasma samples, high QC spiked conc. (MET 40, CEF 240, MET-OH 24 µg/mL)
[16] = processed plasma samples, low QC spiked conc. (MET 0.15, CEF 1.2, MET-OH 0.06 µg/mL)

Row | Benchtop stability in matrix ST % [1, 13] [%] | Benchtop stability in matrix ST % [1, 14] [%] | Freeze-thaw stability ST % [2, 13] [%] | Freeze-thaw stability ST % [2, 14] [%] | Sub-stock solution stability ST % [3] [%] | concentration at 5 min [5] [ng/mL] | concentration at 30 min [5] [ng/mL] | Auto-sampler stability ST % [6, 15] [%] | Auto-sampler stability ST % [6, 16] [%] | Long-term stability ST % [7, 13] [%] | Long-term stability ST % [7, 14] [%] | Compound | also measured
1 | 96.0 | 98.1 | 95.3 | 95.8 | 96.1 | 266000 | 74400 | 95.4 | 90.6 | 90.6 | 92.2 | CO/N=C(\C(=O)N[C@@H]1C(=O)N2C(C(=O)O)=C(CSc3nc(=O)c(=O)[nH]n3C)CS[C@H]12)c1csc(N)n1 [CEF, Ceftriaxone sodium] | Benchtop stability in matrix ST % [1, 11]: 99.8%; Benchtop stability in matrix ST % [1, 12]: 105.8%; Freeze-thaw stability ST % [2, 11]: 93.0%; Freeze-thaw stability ST % [2, 12]: 92.2%; Average protein binding [4]: 89.5%; Auto-sampler stability ST % ([6]; processed plasma ultra-filtrate, spiked conc. 1.2 µg/mL): 98.4%; Auto-sampler stability ST % ([6]; processed plasma ultra-filtrate, spiked conc. 240 µg/mL): 94.2%; Long-term stability ST % [7, 11]: 94.4%; Long-term stability ST % [7, 12]: 92.4%
2 | 98.3 | 105.8 | 93.5 | 96.1 | 95.8 | 2540 | 1990 | 93.7 | 101.5 | 93.8 | 95.2 | Cc1ncc([N+](=O)[O-])n1CCO [MET, metronidazole] | Mean stability [8]: 93.6% - 100.6%; Concentration remaining after freeze/thaw [9]: < 90%; Autosampler stability [10]: 40.6%–58.7%
3 | 102.2 | 99.5 | 100.7 | 97.2 | 95.4 | 130 | 660 | 92.8 | 103.3 | 92.0 | 99.1 | O=[N+]([O-])c1cnc(CO)n1CCO [MET-OH, 1-(2-hydroxyethyl)-2-hydroxymethyl-5-nitroimidazole] | 
